Measured values from patent publication US6960646B2, “Cyclic peptides as potent and selective melanocortin-4 receptors agonists” (Merck & Co., Inc., priority 2001, dated 2005).
“Also recorded” adds a separate entry of the source. Starred links: 1 amine or outer side, 2 acyl side, 3 side chain; linkers in the order of their positions; H or OH if unused. Positions of bridges follow the written chain, without caps; N, C: chain ends. Non-standard residues stand in square brackets, D forms with d. Residues, ends and D or L forms follow the SMILES beside them. ξ: configuration not given here. dPhe(4-Cl) = N[C@H](Cc1ccc(Cl)cc1)C(=O)O; 2Nal = N[C@@H](Cc1ccc2ccccc2c1)C(=O)O; Suc = O=C(CCC(=O)[*:2])[*:1]; ξE = NC(CCC(=O)O)C(=O)O; ξDab = NCCC(N)C(=O)O; ξK = NCCCCC(N)C(=O)O; ξDap = NCC(N)C(=O)O; Ava = NCCCCC(=O)O; GABA = NCCCC(=O)O; βAla = NCCC(=O)O

Key:
hMC-4R [1] = molecular target: T1, hMC-4R (Homo sapiens, UniProt P32245); experiment: cAMP assay in CHO cells expressing a human melanocortin receptor; type: cell-based; settings: 45 minutes at room temperature
T1 construct: expressed in transfected cells; host or cells: Chinese hamster ovary (CHO) cells
T1 sequence (P32245 whole entry): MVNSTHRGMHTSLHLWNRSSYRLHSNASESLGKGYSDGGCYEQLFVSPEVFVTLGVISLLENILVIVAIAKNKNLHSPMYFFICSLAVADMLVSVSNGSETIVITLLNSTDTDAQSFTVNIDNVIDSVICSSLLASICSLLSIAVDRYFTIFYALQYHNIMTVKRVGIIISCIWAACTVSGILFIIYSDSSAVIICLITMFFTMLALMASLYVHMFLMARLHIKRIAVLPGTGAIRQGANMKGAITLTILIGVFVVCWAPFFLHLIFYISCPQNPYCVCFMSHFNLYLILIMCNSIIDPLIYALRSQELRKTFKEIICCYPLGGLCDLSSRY
Method: (§1) Chinese hamster ovary cells expressing a human melanocortin receptor were rinsed with calcium- and magnesium-free PBS (Life Technologies), and detached from the tissue culture flasks by 5-minutes incubation with enzyme-free dissociation buffer (S-014-B, Specialty Media). Cells were collected by centrifugation and resuspended in Earle's balanced salt solution (Life Technologies) with addition of 10 mM 4-(2-hydroxyethyl)-1-piperazineethanesulfonic acid (Hepes) buffer, pH 7.5, 5 mM MgCl2, 1 mM glutamine, and 1 mg/ml bovine serum albumin to concentration of 1-5×10^6 cells/ml. Subsequently, cells were counted and the cell suspension was treated with the phosphodiesterase inhibitor 3-isobutyl-1-methylxanthine (to concentration of 0.6 mM).
(§2) A test compound was dissolved in dimethyl sulfoxide (DMSO, 10^−3 to 10^−8 M), diluted with buffer, and 0.1 volume of the solution was added to 0.9 volumes of the cell suspension (1 to 5×10^5 cells); final concentration of DMSO was 1%. After 45 minutes at room temperature, cells were lysed by incubation at 100° C. for 5 minutes to release accumulated cAMP. Accumulation of cAMP was measured in an aliquot of the cell lysate with the Amersham (Arlington Heights, Ill.) cAMP detection assay kit (RPA556). The amount of cAMP produced in response to a tested compound was compared to the amount of cAMP produced in response to α-MSH, defined as a 100% agonist. All active peptides were characterized in three independent experiments.

hMC-3R [2] = molecular target: T2, hMC-3R (Homo sapiens, UniProt P41968); experiment: as above; type: cell-based; settings: 45 minutes at room temperature
T2 construct: expressed in transfected cells; host or cells: Chinese hamster ovary (CHO) cells
T2 sequence (P41968 whole entry): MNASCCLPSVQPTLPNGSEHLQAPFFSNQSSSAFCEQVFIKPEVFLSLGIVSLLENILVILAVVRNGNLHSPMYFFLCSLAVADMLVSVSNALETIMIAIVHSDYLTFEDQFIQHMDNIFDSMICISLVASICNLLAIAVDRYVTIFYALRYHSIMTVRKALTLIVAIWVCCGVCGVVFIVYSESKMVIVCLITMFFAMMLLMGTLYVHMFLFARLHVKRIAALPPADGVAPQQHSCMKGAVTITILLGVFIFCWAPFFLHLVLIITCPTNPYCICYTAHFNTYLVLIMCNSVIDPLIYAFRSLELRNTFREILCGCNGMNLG
Method: as §1, §2

hMC-5R [3] = molecular target: T3, hMC-5R (Homo sapiens, UniProt P33032); experiment: as above; type: cell-based; settings: for EC50: CHO cells, 45 minutes at room temperature; for CAMP Assay hMC-5R, % activation at a single concentration: @ 5 (concentration unit not given), relative to α-MSH defined as a 100% agonist
T3 construct: expressed in transfected cells; host or cells: Chinese hamster ovary (CHO) cells
T3 sequence (P33032 whole entry): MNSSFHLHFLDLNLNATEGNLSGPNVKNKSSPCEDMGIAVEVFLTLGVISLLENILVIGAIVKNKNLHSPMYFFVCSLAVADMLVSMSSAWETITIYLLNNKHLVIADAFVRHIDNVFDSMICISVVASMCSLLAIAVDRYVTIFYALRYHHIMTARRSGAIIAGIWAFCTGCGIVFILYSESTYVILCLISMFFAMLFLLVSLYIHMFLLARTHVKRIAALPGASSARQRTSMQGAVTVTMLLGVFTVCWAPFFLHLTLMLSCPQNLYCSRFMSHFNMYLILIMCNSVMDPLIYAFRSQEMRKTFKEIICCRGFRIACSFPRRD
Method: as §1, §2

hMC-4R [4] = molecular target: T1, hMC-4R; experiment: Competitive binding assay, [125I]-NDP-α-MSH, CHO cell membranes; settings: 200 pM [125I]-NDP-α-MSH, read-out: Binding Assay IC50 hMC-4R
Method: (§3) The peptides of the present invention were evaluated for agonist activity in receptor binding assay. Crude membrane preparations were obtained from Chinese hamster ovary cells expressing human MC3, MC4, and MC5 receptors. Cells were rinsed with phosphate-buffered saline (PBS) lacking CaCl2 or MgCl2 (Life Technologies, Gaithersburg, Md., USA), and then detached with enzyme-free dissociation media (Specialty Media, Lavellette, N.J., USA). Cells were pelleted at 2800×g for 10 minutes and resuspended in membrane buffer (20 mM Tris, pH 7.2, 5 mM ethylenediaminetetraacetic acid) with 5 μg/ml leupeptin, 5 μg/ml aprotinin, 40 μg/ml bacitracin, and 25 μg/ml pefabloc (Boehringer Mannheim). The cells were […] with 10 strokes by using a motor-driven Teflon-coated pestle in a glass homogenizer at low speed. The resulting cell suspension was centrifuged at 4100×g, 4° C., for 20 minutes. The pellet was resuspended in fresh membrane buffer with protease inhibitors, aliquoted, snap-frozen in liquid nitrogen, and stored at −80° C. The resulting crude membranes were titrated to determine the optimal level necessary for performing binding studies.
(§4) Binding reactions (total volume=250 μl) contained MBB (50 mM Tris, pH 7.2, 2 mM CaCl2, 1 mM MgCl2), 0.1% bovine serum albumin, crude membranes prepared from cells expressing human MC3, MC4, or MC5 receptor, 200 pM of [125I]-NDP-α-MSH (Amersham, Arlington Heighs, Ill., USA), and increasing concentrations of unlabeled test compounds dissolved in dimethylsulfoxide (final concentration=2%). Reactions were incubated for 1 hour without shaking and then filtered through 96-well filter plates (Packard), presoaked in 1% polyethyleneimine. Filters were washed 3 times with TNE buffer (50 mM Tris, pH 7.4, 5 mM ethylene-diaminetetraacetic acid, 150 mM NaCl), dried and counted by using Microscint-20 in a Topcount scintillation counter (Packard). Nonspecific binding was determined in the presence of 2 μm of unlabeled NDP-α-MSH (Peninsula Laboratories). Active peptides were evaluated in three independent experiments.

hMC-3R [5] = molecular target: T2, hMC-3R; experiment: as above; settings: 200 pM [125I]-NDP-α-MSH, read-out: Binding Assay IC50 hMC-3R
Method: as §3, §4

hMC-5R [6] = molecular target: T3, hMC-5R; experiment: as above; settings: 200 pM [125I]-NDP-α-MSH, read-out: Binding Assay IC50 hMC-5R
Method: as §3, §4

[7] = rats, cited from earlier work; for Food intake: intraventricular administration / injection

Row | Molecule | EC50 (hMC-4R [1]) [nM] | EC50 (hMC-3R [2]) [nM] | EC50 (hMC-5R [3]) [nM] | IC50 (hMC-4R [4]) [nM] | IC50 (hMC-3R [5]) [nM] | IC50 (hMC-5R [6]) [nM] | CAMP Assay hMC-5R, % activation at a single concentration (hMC-5R [3]) [% @ 5] | Food intake [7] | Body weight ([7]; intraventricular administration)
1 | N=C(N)NCCC[C@@H]1NC(=O)[C@@H](Cc2ccccc2)NC(=O)[C@H](Cc2c[nH]cn2)NC(=O)CCC(=O)NCC(C(N)=O)NC(=O)[C@H](Cc2c[nH]c3ccccc23)NC1=O (some centres unmarked) [Example 3] (H[dF]RW[ξDap]-NH2; linker N-5 via Suc) | 33 | 590 | – | 71 | 1600 | 3600 | 12 | – | –
2 | N=C(N)NCCC[C@@H]1NC(=O)[C@@H](Cc2ccc(Cl)cc2)NC(=O)[C@H](Cc2c[nH]cn2)NC(=O)CCC(=O)NCCCCC(C(N)=O)NC(=O)[C@H](Cc2c[nH]c3ccccc23)NC1=O (some centres unmarked) [Example 4] (H[dPhe(4-Cl)]RW[ξK]-NH2; linker N-5 via Suc) | 0.74 | 40 | 170 | 1.7 | 17 | 92 | – | – | –
3 | N=C(N)NCCC[C@@H]1NC(=O)[C@@H](Cc2ccccc2)NC(=O)[C@H](Cc2c[nH]cn2)NC(=O)CCCNC(=O)CCC(C(N)=O)NC(=O)[C@H](Cc2c[nH]c3ccccc23)NC1=O (some centres unmarked) [Example 7] ([GABA]H[dF]RW[ξE]-NH2; lactam N-6) | 5.7 | 310 | > 5000 | 41 | 1830 | > 5000 | – | – | –
4 | N=C(N)NCCC[C@@H]1NC(=O)[C@@H](Cc2ccccc2)NC(=O)[C@H](Cc2c[nH]cn2)NC(=O)CCNC(=O)CCC(C(N)=O)NC(=O)[C@H](Cc2c[nH]c3ccccc23)NC1=O (some centres unmarked) [Example 8] ([βAla]H[dF]RW[ξE]-NH2; lactam N-6) | – | – | – | – | 450 | 5050 | – | – | –
5 | N=C(N)NCCC[C@@H]1NC(=O)[C@@H](Cc2ccccc2)NC(=O)[C@H](Cc2c[nH]cn2)NC(=O)CNC(=O)CCC(C(N)=O)NC(=O)[C@H](Cc2c[nH]c3ccccc23)NC1=O (some centres unmarked) [Example 9] (GH[dF]RW[ξE]-NH2; lactam N-6) | 35 | 2200 | – | 290 | > 1000 | > 1000 | 15 | – | –
6 | MTII | – | – | – | – | – | – | – | reduced food intake | –
7 | SHU9119 | – | – | – | – | – | – | – | increased food intake; also recorded: stimulates food intake | increased food intake and body weight

Second part, led by results:

Row | EC50 (hMC-4R [1]) [nM] | EC50 (hMC-3R [2]) [nM] | EC50 (hMC-5R [3]) [nM] | IC50 (hMC-4R [4]) [nM] | IC50 (hMC-3R [5]) [nM] | IC50 (hMC-5R [6]) [nM] | CAMP Assay hMC-5R, % activation at a single concentration (hMC-5R [3]) [% @ 5] | Molecule | Food intake [7] | Body weight ([7]; intraventricular administration)
8 | 3.3 | 110 | 1180 | 25 | 418 | 3100 | – | N=C(N)NCCC[C@@H]1NC(=O)[C@@H](Cc2ccccc2)NC(=O)[C@H](Cc2c[nH]cn2)NC(=O)CCC(=O)NCCCCC(C(N)=O)NC(=O)[C@H](Cc2c[nH]c3ccccc23)NC1=O (some centres unmarked) [Example 1] (H[dF]RW[ξK]-NH2; linker N-5 via Suc) | – | –
9 | 2.9 | 240 | 2200 | 35 | 1800 | 7200 | – | N=C(N)NCCC[C@@H]1NC(=O)[C@@H](Cc2ccccc2)NC(=O)[C@H](Cc2c[nH]cn2)NC(=O)CCC(=O)NCCC(C(N)=O)NC(=O)[C@H](Cc2c[nH]c3ccccc23)NC1=O (some centres unmarked) [Example 2] (H[dF]RW[ξDab]-NH2; linker N-5 via Suc) | – | –
10 | 3.7 | 360 | > 5000 | 13 | 440 | > 20000 | – | N=C(N)NCCC[C@@H]1NC(=O)[C@@H](Cc2ccccc2)NC(=O)[C@H](Cc2c[nH]cn2)NC(=O)CCC(=O)NCCCCC(C(N)=O)NC(=O)[C@H](Cc2ccc3ccccc3c2)NC1=O (some centres unmarked) [Example 5] (H[dF]R[2Nal][ξK]-NH2; linker N-5 via Suc) | – | –
11 | 2.7 | 190 | 1900 | 12 | 580 | 9000 | – | N=C(N)NCCC[C@@H]1NC(=O)[C@@H](Cc2ccccc2)NC(=O)[C@H](Cc2c[nH]cn2)NC(=O)CCCCNC(=O)CCC(C(N)=O)NC(=O)[C@H](Cc2c[nH]c3ccccc23)NC1=O (some centres unmarked) [Example 6] ([Ava]H[dF]RW[ξE]-NH2; lactam N-6) | – | –
